Measurements published in ChEMBL document CHEMBL1127711, “Preparation of a novel series of phosphonate norstatine renin inhibitors” (Bioorg Med Chem Lett, 1994).

molecular target: T1, Renin (Homo sapiens, UniProt P00797); assay: Compound was tested for the inhibition of human plasma renin(Hu Renin); format: cell-free
T1 sequence (P00797 whole entry): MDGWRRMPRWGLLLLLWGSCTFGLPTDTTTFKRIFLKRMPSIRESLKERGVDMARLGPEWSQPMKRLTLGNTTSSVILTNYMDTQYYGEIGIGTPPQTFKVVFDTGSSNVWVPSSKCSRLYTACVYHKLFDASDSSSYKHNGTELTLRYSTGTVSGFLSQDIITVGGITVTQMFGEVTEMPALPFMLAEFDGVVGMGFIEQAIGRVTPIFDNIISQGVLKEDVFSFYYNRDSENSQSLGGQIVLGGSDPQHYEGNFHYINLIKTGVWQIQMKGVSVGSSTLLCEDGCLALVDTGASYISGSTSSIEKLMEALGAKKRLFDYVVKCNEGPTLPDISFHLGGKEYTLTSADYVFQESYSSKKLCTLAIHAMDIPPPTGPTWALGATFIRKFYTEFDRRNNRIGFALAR

First: CCCOP(=O)(OCCC)C(O)[C@H](CC1CCCCC1)NC(=O)[C@H](CSC)NC(=O)[C@H](Cc1ccccc1)NC(=O)N1CCOCC1 (some centres not stated)
Second: CCOP(=O)(OCC)C(O)[C@H](CC1CCCCC1)NC(=O)[C@H](CSC)NC(=O)[C@H](Cc1ccccc1)NC(=O)N1CCOCC1 (some centres not stated)
The IC50 of the first is 2.4-fold higher: 0.06 µM for the first, 0.025 µM for the second.

Compared with CSC[C@H](NC(=O)[C@H](Cc1ccccc1)NC(=O)N1CCOCC1)C(=O)N[C@@H](CC1CCCCC1)C(O)P(=O)(OC(C)C)OC(C)C (some centres not stated), COP(=O)(OC)C(O)[C@H](CC1CCCCC1)NC(=O)[C@H](CSC)NC(=O)[C@H](Cc1ccccc1)NC(=O)N1CCOCC1 (some centres not stated) is 240-fold lower in IC50: 1.4 µM for the first, 0.0058 µM for the second. The second is the more potent here.

Compared with COP(=O)(OC)C(O)[C@H](CC1CCCCC1)NC(=O)[C@H](CCc1cnc[nH]1)NC(=O)[C@H](Cc1ccccc1)NC(=O)N1CCOCC1 (some centres not stated), CCCC[C@H](NC(=O)[C@H](Cc1ccccc1)NC(=O)N1CCOCC1)C(=O)N[C@@H](CC1CCCCC1)C(O)P(=O)(OC)OC (some centres not stated) is 5.9-fold lower in IC50: 0.19 µM for the first, 0.032 µM for the second. The second is the more potent here.

Molecule CSC[C@H](NC(=O)[C@H](Cc1ccccc1)NC(=O)N1CCOCC1)C(=O)N[C@@H](CC1CCCCC1)C(O)P(=O)(OCc1ccccc1)OCc1ccccc1 (some centres not stated) has an IC50 of 0.19 µM.
